Test results as given in article PMC8381290 (Journal of medicinal chemistry, 2021).

Experiments:
[1] = format: in vivo, mouse; settings: for distribution within ocular tissue / accumulation in the eye compared with emixustat: single 380 nmol i.p. dose
[2] = target: T1, RPE65 (Bos taurus, UniProt Q28175); experiment: RPE65 retinoid isomerase activity assay; settings: ratio of IC50 values
[3] = 3 h after single 380 nmol i.p. dose
[4] = target: T1, RPE65; settings: RPE65 inhibition; cited from earlier work

T1 sequence (Q28175 whole entry): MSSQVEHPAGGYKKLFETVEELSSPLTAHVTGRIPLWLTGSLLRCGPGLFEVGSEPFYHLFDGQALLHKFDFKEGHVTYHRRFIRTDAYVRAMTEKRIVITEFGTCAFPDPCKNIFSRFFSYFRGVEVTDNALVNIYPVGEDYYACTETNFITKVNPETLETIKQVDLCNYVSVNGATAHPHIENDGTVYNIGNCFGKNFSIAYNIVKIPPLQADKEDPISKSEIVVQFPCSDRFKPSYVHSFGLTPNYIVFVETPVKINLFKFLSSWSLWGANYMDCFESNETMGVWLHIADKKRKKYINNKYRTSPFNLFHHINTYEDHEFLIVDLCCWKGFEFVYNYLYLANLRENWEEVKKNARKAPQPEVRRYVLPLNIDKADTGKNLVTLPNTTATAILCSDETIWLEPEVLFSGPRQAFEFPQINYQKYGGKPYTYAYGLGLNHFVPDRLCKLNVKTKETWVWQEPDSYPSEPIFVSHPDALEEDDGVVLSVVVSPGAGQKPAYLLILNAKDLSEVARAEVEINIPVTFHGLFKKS

For `CCCC(CCC)COc1cc([C@H](O)CCN)ccc1F` [Compound 24, (R)-3-Amino-1-(4-fluoro-3-((2-propylpentyl)oxy)phenyl)propan-1-ol], which “distribution within ocular tissue” value [1] is on record?
Its value is “poorest distribution within ocular tissue”.

What about the “inhibitory potency relative to racemic emixustat” value [2] of the same compound?
The value was 3 times.

And the “initial plasma (serum) level” value [3]?
The value was “highest initial plasma levels”.

For `NCCC(O)c1cccc(OCC2CCC(F)(F)CC2)c1` (stereo not shown) [Compound 57, 3-Amino-1-(3-((4,4-difluorocyclohexyl)methoxy)phenyl) propan-1-ol], which “eye amount relative to compounds 24 and 49” value ([1]; day 7 after single i.p. dose) is on record?
The value was 10 times.

And the “eye amount relative to emixustat” value ([1]; day 7 after single i.p. dose)?
The value was 5 times.

And the “accumulation in the eye compared with emixustat” value [1]?
Its value is “accumulate more”.

With `[2H]C([2H])(N)CC(O)c1cccc(OCC2CCC(F)(F)CC2)c1` (stereo not shown) [Compound 59, 3-Amino-1-(3-((4,4-difluorocyclohexyl)methoxy)phenyl)propan-3,3-d2-1-ol] as the compound, how does the “accumulation in the eye compared with emixustat” value [1] read?
The value was “accumulate more”.

Which “distribution within ocular tissue” value [1] does the source give for `NCCC(O)c1ccc(F)c(OCC2CCCCC2)c1` (stereo not shown) [Compound 49, 3-Amino-1-(3-(cyclohexylmethoxy)-4-fluorophenyl)propan-1-ol] here?
The value was “poorest distribution within ocular tissue”.

What about the “initial plasma (serum) level” value [3] of the same compound?
The value was “highest initial plasma levels”.

Which IC50 [4] does the source give for `CCCC(CCC)COc1cccc([C@H](O)CCN)c1` [(R)-MB-004] here?
Its IC50 is 106 ± 16 nM.
